Here are results for four compounds from US20250340946A1, “METHOD OF PROGNOSING AND TREATING GLIOMA” (Agency for Science, Technology and Research, priority 2022, published 2025).

The subject of test [1] is LOC expression in mIDH1 (IDH1 R132H/WT) LN18 cells. Briefly: qPCR of LOC expression in mIDH1 cells. It is filed as cell-based, human. The text has this: FIG. 6: LOC: DHX15 serves as a targetable vulnerability in wtIDH1 high-grade glioma. A) LOC expression in different IDH mutation status across different WHO grade gliomas based on RNA-seq data from CGGA. B) qPCR of LOC expression in wtIDH1 LN18 cells or mIDH1 clones. Those clones were generated by base editing. C) qPCR of LOC expression in wtIDH1 and mIDH1 LN18 cells treated with or without mIDH1 inhibitor AGI-5198. D) qPCR of LOC expression in wtIDH1 and mIDH1 LN18 cells with or without DMNT inhibitor 5-Azac treatment. E) Protein lysates from wtIDH1 and mIDH1 LN18 cells were analyzed for levels of phosphorylated and total p65 and p38 proteins by western blot. F) wtIDH1 and mIDH1 LN18 cells were transfected with empty vector (EV) or expression vectors of LOC or mutant version of LOC (LOC-M2). After 48 hours cells were harvested and endogenous DHX15 or p65 was immunoprecipitated with antibody against DHX15 or p65. IP samples were analyzed by subsequent immunoblot for the indicated proteins at indicated time points. G-H) Cell viability assay of wtIDH1 G) and mIDH1 LN18 cells H) treated with or without DHX inhibitor. I) Fluorescence imaging of wtIDH1 and mIDH1 GBM orthotopic xenograft models with or without DHX inhibitor treatment. J) Quantification of tumor signal intensity obtained from I). […]
For orientation: In qPCR the cycle at which signal appears reflects the starting amount.

Test [2] concerns GBM cells. Kind of test: Cell viability, RNA helicase inhibitors alone or with TMZ (FIG. 9). It is filed as cell-based. The conditions noted are these: for synergy on cell viability: combination therapy with TMZ; for cell viability: single agent.

For the compound `Nc1ncn([C@@H]2O[C@H](CO)[C@@H](O)[C@H]2O)c(=O)n1` [5-AzaC, 5-Azacytidine], the “IDH1 mutation induced hypermethylation phenotype (diminished LOC expression)” value in test [1] (DNA methyltransferase inhibitor treatment, FIG. 6D) is on record as “abrogate this hypermethylation phenotype”.

On to `COc1ccc([C@@]23Oc4cc(OC)cc(OC)c4[C@]2(O)[C@H](O)[C@H](C(=O)N(C)C)[C@H]3c2ccccc2)cc1` [Rocaglamide], for which, in test [2], the “synergy on cell viability” value is given as “does not show synergistic inhibition of cell viability” and the cell viability result was “inhibition of cell viability”. As to `Cc1ccccc1C(C(=O)NC1CCCCC1)N(C(=O)Cn1ccnc1C)c1cccc(F)c1` (stereo not drawn) [selective mutant IDH1^R132H inhibitor], in test [1] (IDH1 R132H/WT cells, mIDH1 inhibitor treatment, FIG. 6C), the LOC expression entry is “restored the LOC expression”.

For RK-33, in test [2], the “synergy on cell viability” value is on record as “does not show synergistic inhibition of cell viability” and the cell viability result is recorded as “inhibition of cell viability”.
